# Test results taken from patent US20090029366A1 (priority 2007, published 2009).
# Molecular target: T1, human HCN1 (Homo sapiens, UniProt O60741)
# T1 construct: expressed in transfected cells; host or cells: HEK-293H
# T1 sequence (O60741 1-890): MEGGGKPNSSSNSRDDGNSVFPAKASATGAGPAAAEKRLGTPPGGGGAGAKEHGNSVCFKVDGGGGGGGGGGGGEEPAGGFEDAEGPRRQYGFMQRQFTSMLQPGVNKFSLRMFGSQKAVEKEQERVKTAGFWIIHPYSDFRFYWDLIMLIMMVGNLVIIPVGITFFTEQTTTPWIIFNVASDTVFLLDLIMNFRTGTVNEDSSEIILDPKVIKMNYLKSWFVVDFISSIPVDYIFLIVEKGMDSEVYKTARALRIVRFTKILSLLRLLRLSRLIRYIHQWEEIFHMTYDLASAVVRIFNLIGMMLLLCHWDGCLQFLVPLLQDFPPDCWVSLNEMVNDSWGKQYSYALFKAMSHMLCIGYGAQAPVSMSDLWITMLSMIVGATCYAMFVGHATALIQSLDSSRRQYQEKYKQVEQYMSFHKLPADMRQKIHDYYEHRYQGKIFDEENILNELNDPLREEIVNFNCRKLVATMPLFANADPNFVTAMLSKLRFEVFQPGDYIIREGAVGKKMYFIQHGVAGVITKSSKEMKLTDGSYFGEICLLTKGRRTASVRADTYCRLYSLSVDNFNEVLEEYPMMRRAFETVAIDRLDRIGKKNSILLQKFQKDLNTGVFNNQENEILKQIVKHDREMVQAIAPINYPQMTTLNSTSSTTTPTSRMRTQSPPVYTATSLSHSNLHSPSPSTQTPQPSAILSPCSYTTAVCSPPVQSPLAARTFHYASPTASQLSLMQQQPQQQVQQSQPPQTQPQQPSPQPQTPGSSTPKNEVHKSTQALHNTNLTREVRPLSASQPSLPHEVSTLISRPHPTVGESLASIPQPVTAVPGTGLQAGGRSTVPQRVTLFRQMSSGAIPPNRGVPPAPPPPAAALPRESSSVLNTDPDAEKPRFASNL
# Experiment: MPSD FLIPR 384 well hyperpolarization assay, HCN1
# Format: cell-based
# Method: HEK-293H cells stably expressing human HCN1, HCN2, or HCN3 channel were plated at a density of 45-50×10^3 cells/well in a 384 well format fluorescent imaging plate reader system (FLIPR®^384) in 50 μl/well of DMEM supplemented with 10% fetal bovine serum and penicillin/streptomycin. The cells were cultured for 24-48 hours in a 5% CO2/air humidified incubator at 37° C.
# The cells seeded on the microtiter plates were incubated in 50 μl HBSS, as described in Example 2. Optionally, HBSS was supplemented with about 25 mM of KCl to further enhance the assay window. A membrane potential sensitive dye (MPSD), Component-A of the Membrane Potential Assay Kit, (Product No. R-8034, Molecular Devices Corporation of Sunnyvale, Calif.) was dissolved in the HBSS solution (1 vial/0.5 L). The excess saline was removed to fit the residual volume of about 1 μl to 5 μl. […]
# Membrane potentials were measured at room temperature (21°-23°) for each of the above-described saline conditions using a fluorescent imaging plate reader system (FLIPR®, Molecular Devices of Sunnyvale, Calif.). […]
# HEK-293H cells stably expressing human HCN1 channel were plated as described in Example 3 above. […] The change in fluorescence (ΔF) was measured for a total assay time of about 180 seconds. […]
compound,measurement,setting,value
CCN(c1ccccc1)c1cc(=NC)n(C)c(C)n1.Cl [ZD7288],blockade of hyperpolarization (change in fluorescence),"30 μM ZD7288, HEK-293H HCN1, about 180 seconds",effectively blocked hyperpolarization
same,"blockade of hyperpolarization (change in fluorescence), FIG. 5 legend","50 μM ZD7288, cells expressing HCN1",effectively blocked hyperpolarization
